# Data as given in patent US8680139B2 (Progenra, priority 2009, dated 2014).
# Molecular target: T1, USP7 (Homo sapiens, UniProt Q93009)
# T1 construct: full length human USP7 protein; made in house
# Test: USP7, Ub-PLA2 assay
# Type: biochemical
# Conditions: Ub-PLA2 / NBD C6-HPC fluorescence, 30 minute preincubation; read-out: EC50 for inhibition of USP7
# Method in brief: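 Activity read as fluorescence in a Ub-PLA2 format, with percent inhibition calculated within each plate against DMSO (uninhibited) and NEM (background) wells. Vehicle was 100% DMSO.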
# T1 sequence (Q93009 whole entry): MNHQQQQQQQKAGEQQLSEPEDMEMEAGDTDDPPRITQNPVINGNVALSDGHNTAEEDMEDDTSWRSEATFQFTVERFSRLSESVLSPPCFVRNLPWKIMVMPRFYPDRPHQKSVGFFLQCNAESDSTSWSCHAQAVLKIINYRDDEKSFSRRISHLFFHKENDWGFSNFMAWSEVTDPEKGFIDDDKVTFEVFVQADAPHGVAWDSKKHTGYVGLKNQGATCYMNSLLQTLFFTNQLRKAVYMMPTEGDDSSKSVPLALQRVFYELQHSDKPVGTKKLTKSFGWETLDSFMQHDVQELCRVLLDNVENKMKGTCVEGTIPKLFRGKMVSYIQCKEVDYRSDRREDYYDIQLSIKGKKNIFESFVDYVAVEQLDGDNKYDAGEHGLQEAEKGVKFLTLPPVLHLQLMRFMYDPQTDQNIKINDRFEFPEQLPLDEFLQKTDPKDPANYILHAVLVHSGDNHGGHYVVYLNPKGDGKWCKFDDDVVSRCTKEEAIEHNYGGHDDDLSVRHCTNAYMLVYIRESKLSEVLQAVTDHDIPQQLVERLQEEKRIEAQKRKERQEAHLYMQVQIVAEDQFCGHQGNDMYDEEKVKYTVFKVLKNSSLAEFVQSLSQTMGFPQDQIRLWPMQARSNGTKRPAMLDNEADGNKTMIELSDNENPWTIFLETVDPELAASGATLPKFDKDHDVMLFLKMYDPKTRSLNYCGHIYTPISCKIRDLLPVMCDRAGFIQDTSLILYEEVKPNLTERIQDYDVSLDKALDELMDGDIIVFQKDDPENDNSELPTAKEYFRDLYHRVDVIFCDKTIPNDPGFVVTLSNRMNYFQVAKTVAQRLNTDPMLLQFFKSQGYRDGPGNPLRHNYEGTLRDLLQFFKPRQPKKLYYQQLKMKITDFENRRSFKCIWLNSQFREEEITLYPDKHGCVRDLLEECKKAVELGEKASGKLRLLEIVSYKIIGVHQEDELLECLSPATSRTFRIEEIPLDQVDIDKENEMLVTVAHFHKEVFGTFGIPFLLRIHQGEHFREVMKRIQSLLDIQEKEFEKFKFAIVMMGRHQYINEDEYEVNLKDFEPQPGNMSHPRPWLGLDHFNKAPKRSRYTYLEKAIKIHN
row,Compound,EC50
1,"NC(=O)c1cc([N+](=O)[O-])c(Sc2c(Cl)cncc2Cl)s1 [Example 46, 5-[(3,5-dichloro-4-pyridyl)sulfanyl]-4-nitro-thiophene-2-carboxamide]",1000 to 10000 nM
2,"O=C(NCCCN1CCCC1=O)c1cc([N+](=O)[O-])c(Sc2ccc(Cl)cc2Cl)s1 [Example 82, 5-((2,4-dichlorophenyl)thio)-4-nitro-N-(3-(2-oxopyrrolidin-1-yl)propyl)thiophene-2-carboxamide]",1000 to 10000 nM
3,"COCCNC(=O)CNC(=O)c1cc([N+](=O)[O-])c(Sc2c(Cl)cncc2Cl)s1 [Example 214, 5-((3,5-dichloropyridin-4-yl)thio)-N-(2-((2-methoxyethyl)amino)-2-oxoethyl)-4-nitrothiophene-2-carboxamide]",1000 to 10000 nM
4,"CC(C)N1CCC(NC(=O)c2cc([N+](=O)[O-])c(Sc3nc4ccccc4s3)s2)CC1 [Example 253, 5-(benzo[d]thiazol-2-ylthio)-N-(1-isopropylpiperidin-4-yl)-4-nitrothiophene-2-carboxamide]",1000 to 10000 nM
5,O=C(Nc1ccc2c(c1)CCC2)c1cc([N+](=O)[O-])c(Sc2c(Cl)cncc2Cl)s1 [Example 112],≤ 1000 nM
6,"O=Cc1cc([N+](=O)[O-])c(Sc2ccc(Cl)cc2Cl)s1 [Example 32, 5-(2,4-dichlorophenylsulfanyl)-4-nitrothiophene-2-carbaldehyde]",1000 to 10000 nM
7,"CS(=O)(=O)CCCNC(=O)c1cc([N+](=O)[O-])c(Sc2c(Cl)cncc2Cl)s1 [Example 245, 5-((3,5-dichloropyridin-4-yl)thio)-N-(3-(methylsulfonyl)propyl)-4-nitrothiophene-2-carboxamide]",1000 to 10000 nM
8,"CN(C)CCC(NC(=O)c1cc([N+](=O)[O-])c(Sc2nc3ccccc3s2)s1)c1ccccc1 (centres unmarked) [Example 254, 5-(benzo[d]thiazol-2-ylthio)-N-(3-(dimethylamino)-1-phenylpropyl)-4-nitrothiophene-2-carboxamide]",1000 to 10000 nM
9,"CC(c1cc([N+](=O)[O-])c(Sc2ccc(Cl)cc2Cl)s1)N(C)C (centres unmarked) [Example 29, 1-[5-(2,4-dichlorophenyl)sulfanyl-4-nitro-2-thienyl]-N,N-dimethyl-ethanamine]",> 10000 nM
10,"CN1CCC(NC(=O)CNC(=O)c2cc([N+](=O)[O-])c(Sc3c(Cl)cncc3Cl)s2)CC1 [Example 222, 5-((3,5-dichloropyridin-4-yl)thio)-N-(2-((1-methylpiperidin-4-yl)amino)-2-oxoethyl)-4-nitrothiophene-2-carboxamide]",≤ 1000 nM
11,"O=C(NCCN1CCCCC1)c1cc([N+](=O)[O-])c(Sc2c(Cl)cncc2Cl)s1 [Example 161, 5-((3,5-dichloropyridin-4-yl)thio)-4-nitro-N-(2-(piperidin-1-yl)ethyl)thiophene-2-carboxamide]",≤ 1000 nM
12,"CC(=O)c1cc([N+](=O)[O-])c(Sc2ccc3ccccc3c2)s1 [Example 11, 1-[5-(2-Naphthylsulfanyl)-4-nitro-2-thienyl]ethanone]",> 10000 nM
13,"CN1CCC(O)(CNC(=O)c2cc([N+](=O)[O-])c(Sc3c(Cl)cncc3Cl)s2)CC1 [Example 90, 5-((3,5-dichloropyridin-4-yl)thio)-N-((4-hydroxy-1-methylpiperidin-4-yl)methyl)-4-nitrothiophene-2-carboxamide]",1000 to 10000 nM
14,"CC(=O)c1cc(I)c(Sc2ccc(Cl)cc2Cl)s1 [Example 20, 1-[5-(2,4-dichlorophenyl)sulfanyl-4-iodo-2-thienyl]ethanone]",> 10000 nM
15,"CC(O)c1cc([N+](=O)[O-])c(Sc2ccc(Cl)cc2Cl)s1 (centres unmarked) [Example 26, 1-[5-(2,4-dichlorophenyl)sulfanyl-4-nitro-2-thienyl]ethanol]",> 10000 nM
16,Cc1cnc(NC(=O)c2cc([N+](=O)[O-])c(Sc3c(Cl)cncc3Cl)s2)s1 [Example 89],1000 to 10000 nM

# Continued, values first:
row,EC50,Compound
1,≤ 1000 nM,"CN(C)c1cccc(CNC(=O)c2cc([N+](=O)[O-])c(Sc3c(Cl)cncc3Cl)s2)c1 [Example 146, 5-((3,5-dichloropyridin-4-yl)thio)-N-(3-(dimethylamino)benzyl)-4-nitrothiophene-2-carboxamide]"
2,≤ 1000 nM,"Cn1nccc1NC(=O)c1cc([N+](=O)[O-])c(Sc2c(Cl)cncc2Cl)s1 [Example 167, 5-((3,5-dichloropyridin-4-yl)thio)-N-(1-methyl-1H-pyrazol-5-yl)-4-nitrothiophene-2-carboxamide]"
3,≤ 1000 nM,"Cc1cccc(CNC(=O)c2cc([N+](=O)[O-])c(Sc3c(Cl)cncc3Cl)s2)c1 [Example 150, 5-((3,5-dichloropyridin-4-yl)thio)-N-(3-methylbenzyl)-4-nitrothiophene-2-carboxamide]"
4,≤ 1000 nM,"O=C(NCc1ccc(O)cc1)c1cc([N+](=O)[O-])c(Sc2c(Cl)cncc2Cl)s1 [Example 165, 5-((3,5-dichloropyridin-4-yl)thio)-N-(4-hydroxybenzyl)-4-nitrothiophene-2-carboxamide]"
5,≤ 1000 nM,"CC(C)CCNC(=O)c1cc([N+](=O)[O-])c(Sc2c(Cl)cncc2Cl)s1 [Example 110, 5-((3,5-dichloropyridin-4-yl)thio)-N-isopentyl-4-nitrothiophene-2-carboxamide]"
6,≤ 1000 nM,"COc1cccc(CNC(=O)c2cc([N+](=O)[O-])c(Sc3c(Cl)cncc3Cl)s2)c1 [Example 99, 5-((3,5-dichloropyridin-4-yl)thio)-N-(3-methoxybenzyl)-4-nitrothiophene-2-carboxamide]"
7,1000 to 10000 nM,"CSCCNC(=O)c1cc([N+](=O)[O-])c(Sc2c(Cl)cncc2Cl)s1 [Example 50, 5-((3,5-dichloropyridin-4-yl)thio)-N-(2-(methylthio)ethyl)-4-nitrothiophene-2-carboxamide]"
8,≤ 1000 nM,"CS(=O)(=O)c1ccc(CNC(=O)c2cc([N+](=O)[O-])c(Sc3c(Cl)cncc3Cl)s2)cc1 [Example 102, 5-((3,5-dichloropyridin-4-yl)thio)-N-(4-(methylsulfonyl)benzyl)-4-nitrothiophene-2-carboxamide]"
9,1000 to 10000 nM,"CN(C)c1ccc(NC(=O)c2cc([N+](=O)[O-])c(Sc3c(Cl)cncc3Cl)s2)cc1 [Example 86, 5-((3,5-dichloropyridin-4-yl)thio)-N-(4-(dimethylamino)phenyl)-4-nitrothiophene-2-carboxamide]"
10,≤ 1000 nM,"O=C(Nc1cccc(Cl)c1)c1cc([N+](=O)[O-])c(Sc2c(Cl)cncc2Cl)s1 [Example 142, N-(3-chlorophenyl)-5-((3,5-dichloropyridin-4-yl)thio)-4-nitrothiophene-2-carboxamide]"
11,1000 to 10000 nM,"Cc1csc(NC(=O)c2cc([N+](=O)[O-])c(Sc3c(Cl)cncc3Cl)s2)n1 [Example 87, 5-((3,5-dichloropyridin-4-yl)thio)-N-(4-methylthiazol-2-yl)-4-nitrothiophene-2-carboxamide]"
12,≤ 1000 nM,"CSc1ccc(CNC(=O)c2cc([N+](=O)[O-])c(Sc3c(Cl)cncc3Cl)s2)cc1 [Example 264, 5-((3,5-dichloropyridin-4-yl)thio)-N-(4-(methylthio)benzyl)-4-nitrothiophene-2-carboxamide]"
13,≤ 1000 nM,"CN(C)c1ccc(CNC(=O)c2cc([N+](=O)[O-])c(Sc3c(Cl)cncc3Cl)s2)cc1 [Example 121, 5-((3,5-dichloropyridin-4-yl)thio)-N-(4-(dimethylamino)benzyl)-4-nitrothiophene-2-carboxamide]"
